Measured values published in patent US5112740A, “Carbon dioxide assay for body fluids comprising carbonic anhydrase” (Eastman Kodak Company, priority 1989, dated 1992).

Tests used:
carbonic anhydrase [1] = assay: Carbonic anhydrase inhibitors tested against hemolysate bias on the enzymatic CO2 slide (Example 3); format: biochemical, human; settings: for Enzymatic Bicarbonate With Hemolysate: hemoglobin 200 mg/dL, 1 hour room temperature; for Bias: with vs without hemolysate (hemoglobin 200 mg/dL)
Experimental: (§1) A stock hemolysate solution was prepared by collecting fresh blood from suitable human donors. The erythrocytes of the blood was pooled, and then washed with saline four times. The erythrocytes were then lysed by five cycles of freezing to -70° C. and thawing at 37° C. The resulting hemolysate was filtered through Whatman No. 1 (Whatman Ltd. UK) filter paper. Hemoglobin concentration in mg/dL was determined by the method of Harboe described in Sca. J. Clinical Lab. Invest. […] The concentration of hemoglobin is directly related to the level of carbonic anhydrase in the hemolysate stock solution.
The enzymatic values for CO2 were determined on the test samples with dry-chemistry slides on an […] Clinical Chemistry Analyzer (available from Eastman Kodak Company, Rochester, N.Y.). The principle of the assay is as represented above by reaction series (1) and (5). […] It had the following format:
A stock solution of 50 mmol/L bicarbonate was prepared in 100 mmol/L tricine buffer (pH 8.0).

carbonic anhydrase [2] = system: carbonic anhydrase
Experimental: Reference values for CO2 (Table I) on test samples were determined using a thermal conductivity procedure on the Corning 965 carbon dioxide analyzer. The technology of the reference procedure is such that it is not affected by carbonic anhydrase.
The enzymatic values for CO2 were determined on the test samples with dry-chemistry slides on an [sequence] Clinical Chemistry Analyzer (available from Eastman Kodak Company, Rochester, N.Y.). The principle of the assay is as represented above by reaction series (1) and (5). […] It had the following format:
A stock solution of 50 mmol/L bicarbonate was prepared in 100 mmol/L tricine buffer (pH 8.0). The stock bicarbonate was diluted with either (a) the buffer or (b) the stock hemolysate and the buffer to give test solutions of about 25 mmol/L HCO3^- and varying concentrations of hemoglobin.

carbonic anhydrase [3] = settings: acetazolamide included in the enzymatic CO2 dry chemistry element
Experimental: as §1

carbonic anhydrase [4] = settings: solution assay
[5] = final inhibitor concentration 20.0 mmol/L
[6] = final inhibitor concentration 1.0 mmol/L
[7] = final inhibitor concentration 2.5 mmol/L
[8] = final inhibitor concentration 5.0 mmol/L
[9] = final inhibitor concentration 2.0 mmol/L

CC(N)C(=O)O (racemic) [DL-Alanine]
Enzymatic Bicarbonate With Hemolysate (carbonic anhydrase [1]; [5]): 14.3 mmol/L
Bias (carbonic anhydrase [1]; [5]): -8.6 mmol/L

CC(=O)Nc1nnc(S(N)(=O)=O)s1 [Acetazolamide]
Effect on bias seen with freshly prepared hemolysates (carbonic anhydrase [2]; acetazolamide included in the enzymatic CO2 dry chemistry element): significantly reduces the bias
Effectiveness when included in the reagent layer (carbonic anhydrase [2]; reagent layer compared with spreading layer): equally as effective
Effect on bias seen with hemolyzed and apparently non-hemolysed patient samples (carbonic anhydrase [3]): effectively eliminates the bias
Minimum concentration effective as an inhibitor (carbonic anhydrase [4]): at least 0.1 mmol/L
Effectiveness in eliminating the negative bias of the enzymatic CO2 assay (carbonic anhydrase [1]; among the carbonic anhydrase inhibitors tested): most effective
Enzymatic Bicarbonate With Hemolysate (carbonic anhydrase [1]; [6]): 22.9 mmol/L
Bias (carbonic anhydrase [1]; [6]): -0.3 mmol/L

[N-]=[N+]=[N-] [Azide]
Enzymatic Bicarbonate With Hemolysate (carbonic anhydrase [1]; [7]): 16.5 mmol/L
Bias (carbonic anhydrase [1]; [7]): -6.8 mmol/L

O[C@H](CS)[C@@H](O)CS [Dithioerythritol]
Enzymatic Bicarbonate With Hemolysate (carbonic anhydrase [1]; [8]): 17.5 mmol/L
Bias (carbonic anhydrase [1]; [8]): -5.8 mmol/L

O=C(O)CN(CCN(CC(=O)O)CC(=O)O)CC(=O)O [EDTA, Ethylenediaminetetraacetic acid]
Enzymatic Bicarbonate With Hemolysate (carbonic anhydrase [1]; [8]): 14.7 mmol/L
Bias (carbonic anhydrase [1]; [8]): -8.1 mmol/L

NCC(=O)O [Glycine]
Enzymatic Bicarbonate With Hemolysate (carbonic anhydrase [1]; [5]): 14.3 mmol/L
Bias (carbonic anhydrase [1]; [5]): -8.1 mmol/L

O=C(O)CN(CCO)CCN(CC(=O)O)CC(=O)O [HEDTA, NHydroxyethylethylenediaminetriacetic acid]
Enzymatic Bicarbonate With Hemolysate (carbonic anhydrase [1]; [8]): 15.7 mmol/L
Bias (carbonic anhydrase [1]; [8]): -7.6 mmol/L

Nc1ccc(S(N)(=O)=O)cc1 [Sulfanilamide]
Enzymatic Bicarbonate With Hemolysate (carbonic anhydrase [1]; [9]): 14.9 mmol/L
Bias (carbonic anhydrase [1]; [9]): -7.9 mmol/L

Nc1ccc(S(=O)(=O)Nc2nccs2)cc1 [Sulfathiazole]
Enzymatic Bicarbonate With Hemolysate (carbonic anhydrase [1]; [9]): 15.8 mmol/L
Bias (carbonic anhydrase [1]; [9]): -8.4 mmol/L

N#CS [Thiocyanate]
Enzymatic Bicarbonate With Hemolysate (carbonic anhydrase [1]; [7]): 15.3 mmol/L
Bias (carbonic anhydrase [1]; [7]): -6.7 mmol/L
